Experimental data from patent US20250034211A1, “C-TERMINAL EXTENDED P53 ACTIVATOR CROSSLINKED PEPTIDOMIMETIC MACROCYCLES AGAINST MDM2/MDMX” (Merck Sharp & Dohme LLC, priority 2021, published 2025).
Converted amounts (≈) assume the structure as drawn. Where a SMILES comes first, the peptide text is derived from it. Bridges are numbered along the chain shown (N, C = ends). [ ]: non-standard residue; d: D form. Lys(N3) = [N-]=[N+]=NCCCC[C@H](N)C(=O)O; R8 = C=CCCCCCC[C@@](C)(N)C(=O)O; Cba = N[C@@H](CC1CCC1)C(=O)O; S5 = C=CCCC[C@](C)(N)C(=O)O; βAla = NCCC(=O)O

Key:
[1] = Circular dichroism (CD) helicity; assay type: physicochemical
Method: The dried peptide was reconstituted in a buffer containing 1 mM HEPES pH 7.4 and 5% methanol to a concentration of 1 mM. The peptide sample was placed in a quartz cuvette with a path length of 0.2 cm and a CD spectrum was recorded from 300 to 190 nm at 25° C. using the Chirascan-plus qCD machine (Applied Photophysics). The actual concentration of the peptide was determined by the absorbance of the peptide at […]. An estimate of the secondary structure components of the peptide was carried out by converting the CD spectrum to mean residue ellipticity before deconvoluting using the CDNN software (distributed by Applied Photophysics). All experiments were done in duplicate.

Solubility (PBS, pH 7) = conditions: PBS, pH 7
HCT116 cells = test: Lactate dehydrogenase release assay (LDH); assay type: cell-based
Method: HCT116 cells were seeded into a 384-well plate at a density of 8000 cells per well. Cells were maintained in McCoy's 5A Medium with 10% fetal bovine serum (FBS), Blasticidin and Penicillin/Streptomycin. The cells were incubated overnight followed by the removal of cell media and the addition of Opti-MEM Medium without FBS. Cells were then treated with peptides for 4/16 hours in Opti-MEM either in 10% FBS or serum free. Final concentration of DMSO was 0.5%. Lactate dehydrogenase release was detected using CytoTox-ONE Homogenous Membrane Integrity Assay Kit (Promega) as per manufacturer's instructions. Measurements were carried out using Tecan plate reader. Maximum LDH release was defined as the amount of LDH released induced by the lytic peptide (iDNA79) and used to normalize the results.

[2] = biological target: T1, MDM2 (1-125; SEQ ID NO 14) (Homo sapiens, UniProt Q00987); test: MDM2 binding assay (fluorescence anisotropy competition, FP)
T1 construct: GST (N); His6 (internal); TEV cleavage site ENLYFQG (internal); made in house; host or cells: E. coli BL21 (DE3) Rosetta T1R
Method: [P] is the protein concentration (MDM2), [L] is the labeled peptide concentration, r is the anisotropy measured, r0 is the anisotropy of the free peptide, rb is the anisotropy of the MDM2-FAM-labeled peptide complex, Kd is the dissociation constant, [L]t is the total FAM labeled peptide concentration, and [P]t is the total MDM2 concentration. […] The competing molecules were then titrated against the complex of the FAM-labeled peptide and protein. Apparent Kd values were determined by fitting the experimental data to the equations shown below:
[L]st and [L]t denote labeled ligand and total unlabeled ligand input concentrations, respectively. Kd2 is the dissociation constant of the interaction between the unlabeled ligand and the protein. In all competition experiments, it is assumed that [P]t>[L]st, otherwise considerable amounts of free labeled ligand would always be present and would interfere with measurements. […] The FAM-labeled peptide was dissolved in dimethyl sulfoxide (DMSO) at 1 mM and diluted into experimental buffer. Readings were carried out with an Envision Multilabel Reader (PerkinElmer). […] All titrations were carried out in triplicate. Curve-fitting was carried out using Prism 4.0 (GraphPad). […] Negative control titrations of the ligands under investigation were also carried out with the fluorescently labeled peptide (in the absence of MDM2) to ensure no interactions were occurring between the ligands and the FAM-labeled peptide.

p53 null Ca Ski = conditions: 72 h, 10% serum
[3] = system: Jump-In T-REx CHO-K1 BLA cells; test: Tetracycline beta-lactamase reporter gene assay (counter screen); assay type: cell-based
Method: Based on Jump-In™ T-REx™ CHO-K1 BLA cells and contain a stably integrated β-lactamase under the control of an inducible CMV promoter. Cells were seeded into a 384-well plate a density of 4000 cells per well. Cells were maintained in Dulbecco's Minimal Eagle Medium (DMEM) with 10% fetal bovine serum (FBS), Blasticidin and Penicillin/Streptomycin. The cells were incubated for 24 hours, followed by cell media removal and replacement with Opti-MEM either containing 10% FBS or 0% FBS. Peptides were then dispensed to each well using a liquid handler, ECHO 555 and incubated for 4/16 hours. Final working concentration of DMSO was 0.5%. β-Lactamase activity was detected using the ToxBLAzer Dual Screen (Invitrogen) as per manufacturer's instructions. Measurements were carried out using Envision multiplate reader (Perkin Elmer). Counter Screen activity was defined as the amount of 0-lactamase activity induced by tetracycline.

T1 sequence (Q00987 with tags, fused parts or gaps): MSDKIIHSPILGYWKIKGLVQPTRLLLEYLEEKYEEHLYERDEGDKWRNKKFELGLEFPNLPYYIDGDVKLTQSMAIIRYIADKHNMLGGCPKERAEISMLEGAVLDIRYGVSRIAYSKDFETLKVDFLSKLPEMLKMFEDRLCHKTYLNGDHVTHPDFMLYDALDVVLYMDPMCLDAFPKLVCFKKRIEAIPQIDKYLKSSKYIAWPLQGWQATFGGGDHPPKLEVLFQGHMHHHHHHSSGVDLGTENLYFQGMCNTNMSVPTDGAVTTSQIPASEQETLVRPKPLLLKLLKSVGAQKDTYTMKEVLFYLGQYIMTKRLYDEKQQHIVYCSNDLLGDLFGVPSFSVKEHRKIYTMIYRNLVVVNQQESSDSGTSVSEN

## CC(=O)N[C@@H](CCCCN=[N+]=[N-])C(=O)NCCC(=O)N[C@@H](CC(C)C)C(=O)N[C@H](C(=O)N[C@@H](Cc1ccccc1)C(=O)N[C@]1(C)CCCCCCC=CCCC[C@@](C)(C(=O)N[C@@H](C)C(=O)N[C@@H](C)C(=O)N[C@@H](C)C(=O)N[C@@H](C)C(=O)N[C@@H](C)C(=O)N[C@H](C)C(N)=O)NC(=O)[C@H](CC2CCC2)NC(=O)[C@H](CCC(N)=O)NC(=O)[C@H](C)NC(=O)[C@H](Cc2c[nH]c3ccccc23)NC(=O)[C@H](Cc2ccc(O)cc2)NC(=O)[C@H](CCC(=O)O)NC1=O)[C@@H](C)O [Macrocycle 3, Ac-K(N3)-betaAla-L-T-F-X1a-E-Y-W-A-Q-Cba-X2a-AAAAA-(D-Ala)-NH2(olefinstaple from X1ato X2a)] (Ac-[Lys(N3)][βAla]LTF[R8]EYWAQ[Cba][S5]AAAAA[dA]-NH2; staple 6-13)
[1]
  CD (% helicity): 47%
HPLC LogD
  logD: 3.15
Solubility (PBS, pH 7)
  solubility: 157 µM (≈ 340 µg/mL)
HCT116 cells; 0% FBS, 4 h
  EC50: > 50 µM
HCT116 cells; 10% FBS, 16 h
  EC50: > 50 µM
[2]
  Kd: 0.031 µM
HCT116; 72 h, 10% serum
  HCT116 proliferation % Max: 71%
HCT116; read-out: cellular efficacy in cell proliferation HTC116 p53 positive control cell lines
  EC50: 0.42 µM
p53 null Ca Ski
  p53 null Ca Ski proliferation % Max: 10%
[3]; 0% FBS, 4 h
  EC50: > 50 µM
[3]; 10% FBS, 16 h
  EC50: > 50 µM
